As usually defined, the EC50 is the concentration at which the effect is half-maximal.

Each structure is given as a SMILES string.

Assay [1] addresses T1, mSTING (CT26 cells overexpressing mSTING) (Mus musculus, UniProt Q3TBT3).
T1 construct: expressed in transfected cells; host or cells: CT26
Put plainly: Western blot of pSTING and pIRF3 in CT26 cells overexpressing mSTING. It counts as cell-based. The note with it: immunoblot, 2 hours. Here is the method:
(§1) 5 x 10^5 cells were seeded in 24-well plates in 500 μl growth medium and stimulated with novel compounds at 10μM. After 2 hours of treatment cells were harvested by centrifugation and cell pellets were lysed in RIPA buffer (20mM Tris-Cl, 150mM NaCl, 0.5mM EDTA, 1% NP40, 0.05% SDS) containing 1x phosphatase inhibitor cocktail 3 (Sigma) and 1x protease inhibitor (Roche) to extract the soluble fraction of protein. 10 μg of extracted protein was electrophoresed in 10% SDS-PAGE gels and transferred onto Immobilon-P membranes (Millipore). […] Anti-rabbit HRP label secondary antibody (Abcam) and Clarity Max™ western ECL substrate (Biorad—cat# 1705062) were used for visualization of bands using a BioRad XRS plus imager.
In general terms: In western blotting, separated proteins are transferred to a membrane and probed.

Assay [2] has as its system ligand binding domain of the R232 variant of STING. Set-up: method as in PMID 26646986. The conditions noted are these: cited from earlier work.
Assay [3] deals with T2, R232.hSTING (CT26 cells) (Homo sapiens, UniProt Q86WV6, H232R).
T2 construct: expressed in transfected cells; host or cells: CT26 (murine)
T2 sequence (Q86WV6 whole entry H232R): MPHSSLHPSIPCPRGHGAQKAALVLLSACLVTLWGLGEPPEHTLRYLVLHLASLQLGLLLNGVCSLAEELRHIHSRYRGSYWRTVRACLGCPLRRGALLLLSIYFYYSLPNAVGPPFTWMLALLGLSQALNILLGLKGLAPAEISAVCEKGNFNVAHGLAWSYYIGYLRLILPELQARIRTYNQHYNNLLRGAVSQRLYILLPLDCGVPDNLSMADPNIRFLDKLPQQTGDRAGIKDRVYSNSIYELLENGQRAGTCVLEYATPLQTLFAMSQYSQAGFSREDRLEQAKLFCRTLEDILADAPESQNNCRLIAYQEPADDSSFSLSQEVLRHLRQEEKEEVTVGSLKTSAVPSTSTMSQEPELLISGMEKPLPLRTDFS
The assay can be described thus: Western blot of Hu-pSTING and pIRF3 in R232.hSTING.CT26 cells. Type of assay: cell-based. The conditions noted are these: immunoblot, 2 hours. Here is the method:
(§2) 5 x 10^5 cells were seeded in 24-well plates in 500 μl growth medium and stimulated with novel compounds at 10μM. After 2 hours of treatment cells were harvested by centrifugation and cell pellets were lysed in RIPA buffer (20mM Tris-Cl, 150mM NaCl, 0.5mM EDTA, 1% NP40, 0.05% SDS) containing 1x phosphatase inhibitor cocktail 3 (Sigma) and 1x protease inhibitor (Roche) to extract the soluble fraction of protein. 10 μg of extracted protein was electrophoresed in 10% SDS-PAGE gels and transferred onto Immobilon-P membranes (Millipore).

Assay [4] concerns the target T3, HAQ STING (THP-1 cells) (Homo sapiens, UniProt Q86WV6, G230A/R293Q/R71H).
T3 construct: THP1 cells constitutively express the HAQ variant of human STING; host or cells: THP-1
The assay can be described thus: Western blot of pSTING and pIRF3 in THP-1 cells. The note with it: immunoblot, 2 hours. Type of assay: cell-based. The protocol: as §2

In assay [5] the target is H232 variant of human STING (Homo sapiens, UniProt Q86WV6). Put plainly: Luciferase (ISRE.ISG reporter) assay in HEK293T cells stably expressing H232 hSTING. Type of assay: cell-based. The conditions noted are these: ISRE.ISG54 luciferase reporter, 18 hours, read-out: estimated EC50, H232 variant. The source says:
• a) Stable STING expressing cells. Stable HEK293T STING-expressing cell lines were generated using plasmids purchased from Invivogen, CA, USA, that contain STING cDNA cloned into the pUNO-1 vector under the hEF1-HTLV promoter as well as the Blasticidin selection cassette. The human STING plasmids corresponding to the R232, H232 and HAQ variants were directly procured from Invivogen while the AQ and Q variants were created by mismatch PCR using cDNA from HAQ.STING and R232.STING variants respectively. These vectors were individually transfected into HEK293T cells using Lipofectamine (Invitrogen) and transfected cells were expanded under Blasticidin selection. These cells were further subjected to clonal selection using the limiting dilution method to obtain clonally pure populations of HEK293T cells expressing each of the five human STING variants. Clones with minimal ligand independent activation of STING were chosen for cellular experiments. • b) N-His R232.hSTING HEK293T cells. […]
[…] clonally selected HEK293T-hSTING-Luciferase cells or control HEK293T-Luciferase cells were seeded in 384-well plates in growth medium and stimulated with known STING agonists or novel compounds. Supernatants were removed after 20 hours of treatment and secretory reporter gene activity was measured using the Quanti-Luc detection system (Invivogen) on a Spectramax i3X luminometer.

Assay [6] deals with THP1 cells. Set-up: method as in PMID 26646986. The conditions noted are these: cited from earlier work.
The target of assay [7] is HAQ variant of human STING (Homo sapiens, UniProt Q86WV6, G230A/R293Q/R71H). The assay can be described thus: Luciferase (ISRE.ISG reporter) assay in HEK293T cells stably expressing HAQ hSTING. Type of assay: cell-based. The note with it: ISRE.ISG54 luciferase reporter, 18 hours, compared with R232 and H232. The source says: • a) Stable STING expressing cells. Stable HEK293T STING-expressing cell lines were generated using plasmids purchased from Invivogen, CA, USA, that contain STING cDNA cloned into the pUNO-1 vector under the hEF1-HTLV promoter as well as the Blasticidin selection cassette. The human STING plasmids corresponding to the R232, H232 and HAQ variants were directly procured from Invivogen while the AQ and Q variants were created by mismatch PCR using cDNA from HAQ.STING and R232.STING variants respectively. These vectors were individually transfected into HEK293T cells using Lipofectamine (Invitrogen) and transfected cells were expanded under Blasticidin selection. These cells were further subjected to clonal selection using the limiting dilution method to obtain clonally pure populations of HEK293T cells expressing each of the five human STING variants. Clones with minimal ligand independent activation of STING were chosen for cellular experiments. • b) N-His R232.hSTING HEK293T cells. HEK293T cells stably expressing N-His R232.hSTING were generated by the following described method. N-His R232.hSTING.pcDNA Myc B plasmid was transfected into HEK293T cells using Lipofectamine reagent (Invitrogen) and the transfected cells were selected under Hygromycin. […]
HAQ variant of human STING, sequence (Q86WV6 whole entry R71H/G230A/R293Q): as the sequence (Q86WV6 whole entry H232R) above, with R71H, G230A, R232H, R293Q counted along it
On the technique in general: Reporter assays use an easily measured gene product as a stand-in for the process of interest.

The target in assay [8] is T4, mSTING (wild type CT26 cells) (Mus musculus, UniProt Q3TBT3).
T4 construct: endogenous in cells; host or cells: CT26 (parent line, and the endogenous protein in R232.hSTING.CT26)
T4 sequence (Q3TBT3 whole entry): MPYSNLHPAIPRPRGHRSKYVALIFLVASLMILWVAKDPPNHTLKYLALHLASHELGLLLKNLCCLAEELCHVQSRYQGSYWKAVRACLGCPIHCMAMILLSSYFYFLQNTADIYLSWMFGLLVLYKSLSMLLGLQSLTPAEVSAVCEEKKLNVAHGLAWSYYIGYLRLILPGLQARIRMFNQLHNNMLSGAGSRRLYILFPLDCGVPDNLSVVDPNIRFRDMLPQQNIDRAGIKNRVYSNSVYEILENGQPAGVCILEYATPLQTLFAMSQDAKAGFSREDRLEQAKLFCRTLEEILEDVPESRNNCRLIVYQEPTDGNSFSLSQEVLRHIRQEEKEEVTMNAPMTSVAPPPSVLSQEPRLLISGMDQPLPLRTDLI
The assay can be described thus: Western blot of pSTING and pIRF3 in parent CT26 cells. It counts as cell-based. The conditions noted are these: immunoblot (S10 Fig). The protocol:
as §1

The target in assay [9] is T3, HAQ STING (THP-1 cells). The assay can be described thus: THP1 cellular assay (EC50). It counts as cell-based. The conditions noted are these: THP-1 cells (HAQ STING).
For assay [10], the target named is T5, recombinant CTT domain of R232 STING (Homo sapiens, UniProt Q86WV6, H232R).
T5 construct: corresponding to the soluble domain of STING (138 to 379 aa) protein; purchased Cayman Chemicals (STING); Invitrogen (TBK1) 22816 (STING); A31514 (TBK1)
T5 sequence (Q86WV6 138-379 H232R): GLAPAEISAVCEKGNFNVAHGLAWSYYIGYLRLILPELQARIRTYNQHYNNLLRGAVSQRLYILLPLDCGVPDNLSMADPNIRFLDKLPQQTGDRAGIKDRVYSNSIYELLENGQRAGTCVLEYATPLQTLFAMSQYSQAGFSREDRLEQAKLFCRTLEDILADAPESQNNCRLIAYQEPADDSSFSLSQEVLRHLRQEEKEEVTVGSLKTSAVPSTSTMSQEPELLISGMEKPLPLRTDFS
Put plainly: In vitro kinase assay, recombinant CTT domain of R232 STING plus recombinant TBK1. The note with it: cell free, immunoblot. It counts as biochemical. Here is the method:
50ng of recombinant STING protein (Cayman Chemicals Cat# 22816) corresponding to the soluble domain of STING (138 to 379 aa) protein or 1 μl of ER fraction (8mg/ml) containing full length STING from R232.hSTING was incubated with 20 ng of recombinant full length TBK1 protein (Invitrogen, Cat# A31514) in the presence/absence of test compound in 20 μl reaction buffer (50mM Tris-HCl of pH 7.4, 100mM NaCl, 5mM MgCl2, 5mM MnCl2, 10% glycerol, 0.2mM Na3VO4, 20mM β-glycero-PO4, 0.5mM ATP) and 0.01% BSA at 30 °C for 45 min. The reaction was quenched by addition of 2 μl of 10X EDTA to a final concentration of […]. Samples were treated with 4x gel loading dye followed by electrophoresis in 10% SDS-PAGE gels and transferred to Immobilon-P membranes (Millipore). […] Anti-rabbit HRP labelled secondary antibody (Abcam) and Clarity Max™ western ECL substrate (Biorad, Cat# 1705062) were used for visualization of bands using a BioRad XRS plus imager.

T3 sequence (Q86WV6 whole entry R71H/G230A/R293Q): as the sequence (Q86WV6 whole entry H232R) above, with R71H, G230A, R232H, R293Q counted along it
T1 sequence (Q3TBT3 whole entry): as the sequence (Q3TBT3 whole entry) above

Turning to `O=C(NCc1ccco1)c1ccc2c(c1)N(Cc1c(F)cccc1Cl)C(=O)CS2` [Compound G10, 4-(2-Chloro-6-fluorobenzyl)-N-(furan-2-ylmethyl)-3-oxo-3,4-dihydro-2H-benzo[b][1,4]thiazine-6-carboxamide], the “phosphorylation of mSTING or mIRF3, CT26 cells overexpressing mSTING” value in assay [1] is recorded as “did not lead to phosphorylation”. Besides, the “direct engagement with ligand binding domain of R232 STING (DSF)” value in [2] is on record as “no evidence of direct engagement”. Besides, in assay [3], the “phosphorylated hSTING (and mIRF3) in CT26 cells overexpressing R232.hSTING” value is listed as “significant amounts”. Moreover, in assay [4], the “phosphorylation of STING and IRF3 (pSTING, pIRF3) in THP1 cells” value is on record as “unable to detect either pSTING or pIRF3”. The EC50 in assay [5] is 4.3 µM. Also, the “activation of IRF3 or NFκB linked reporters in THP1” value in [6] is “unable to activate”. In addition, in [7], the “activity against the HAQ variant” value is listed as “less active”. For the same compound, in assay [8], the “phosphorylation of mSTING or mIRF3, parent CT26 line” value is “did not lead to phosphorylation”. Besides, in assay [9], the “THP-1 EC50” value is listed as “Nil @ 30uM”. In [10], the “formation of pSTING by TBK1, recombinant CTT domain of R232 STING” value was “activated”.

(Values after publication PMC7482845, “G10 is a direct activator of human STING” (PLoS ONE, 2020).)
